In one assay the target is T1, PRAK (Homo sapiens, UniProt Q8IW41).
T1 sequence (Q8IW41 1-473): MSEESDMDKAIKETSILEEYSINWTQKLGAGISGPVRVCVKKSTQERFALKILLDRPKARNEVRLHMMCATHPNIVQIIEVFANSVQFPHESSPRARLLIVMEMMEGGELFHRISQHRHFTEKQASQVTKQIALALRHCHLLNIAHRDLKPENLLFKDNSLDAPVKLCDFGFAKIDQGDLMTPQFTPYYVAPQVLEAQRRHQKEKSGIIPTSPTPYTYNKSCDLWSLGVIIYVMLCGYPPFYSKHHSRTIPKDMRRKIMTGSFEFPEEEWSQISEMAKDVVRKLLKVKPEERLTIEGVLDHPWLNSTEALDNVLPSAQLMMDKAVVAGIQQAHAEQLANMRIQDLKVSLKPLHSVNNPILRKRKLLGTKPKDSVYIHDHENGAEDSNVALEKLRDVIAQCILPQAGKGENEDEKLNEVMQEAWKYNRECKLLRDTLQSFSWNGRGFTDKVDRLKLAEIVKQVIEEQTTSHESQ
The assay is described as follows: HTS ATP-utilizing enzyme assay, off-chip mobility-shift (Caliper HTS 250). The conditions noted are these: test compound 10 μM, kinase listed = active (greater than six-sigma from the mean activity of inactive compounds). Format: biochemical. An excerpt:
The following procedures describe the reagent and plate preparation for a HTS of an ATP-utilizing enzyme, such as a protein kinase, run in an off-chip mobility-shift assay format. The following provides an HTS protocol for running a protein kinase HTS screen on a Caliper HTS 250 microfluidics system. The following parameters are dependent on the protein kinase used and can be determined by one skilled in the art as part of a typical assay development process. For example, the peptide substrate used can be identified from the current literature, by screening a peptide library of potential protein kinase substrates, or by other applicable means accepted in the field.
The following table provides typical screen assay parameters appropriate for a Caliper HTS 250 microfluidics system.
The reagents and buffers listed in the following table are generally applicable for developing and running an HTS screen on a human protein kinase using the Caliper HTS 250 system.
The following reagents were prepared using the previously described buffers.
A 2× Master Buffer solution was prepared by combining 200 mL of 1 M HEPES, pH 7.5, 2 mL of 10% Triton X-100, 20 mL of 10% BSA, and 778 mL of H2O.
A 2.5× Substrate Buffer solution was prepared by combining 177.408 mL of 2× Master Buffer, 0.887 mL of 1 mM peptide-X, and 176.521 mL of H2O.
A 1.55× Termination Buffer solution was prepared by combining 762.05 mL of 2× Master Buffer, 95.1 mL of 0.5 M EDTA, and 666.94 mL of H2O.
A TCB Buffer solution was prepared by combining 125 mL of 2× Master Buffer, 10 mL of 0.5 M EDTA, 6.25 mL of 4% coating reagent, 1.01 mL of 100% DMSO, and 107.74 mL H2O.
A Dye Trough solution was prepared by combining 0.5 μL of peptide-X, and 2,999.5 μL of IX Master Buffer.
A 1.06× Assay Buffer solution was prepared by combining 205.15 mL of 2× Master Buffer, and 181.92 mL of H2O.
Assays to determine the kinase inhibitory activity of compounds of the present disclosure were performed using a Caliper HTS 250 microfluidics device, Greiner U-bottom assay plates, a Multidrop for transfer of reagents, and Biomek FX (AMNCBM03) software. Initially, 2.4 μL of a 1 mM solution of a test compound in 100% DMSO was added to a well of the Greiner U-bottom plate. A single Greiner U-bottom plate having 24×16 wells could include multiple test compounds. Next, […] of 1.06× Assay Buffer was added to each well of the assay plate. Using the Biomek FX, 10 μL of 0.5 M EDTA was added by the span-8 to wells, indicated as 100% Control and 2.4 μL of 100% DMSO was added by the span-8 to wells, indicated as 0% Control. Using the Multidrop, 10 μL of 2.5× Enzyme Buffer, followed by 10 μL of 2.5× Substrate Buffer was added to each well of the assay plate. The total reaction volume in each well was 25 μL, and the concentration of the test compound was 10 μM. The assay plate was incubated for 2.5 hrs at 20° C. to 22° C. After the incubation period, using the Multidrop, 45 μL of 1.55× Termination Buffer was added to each well of the assay plate to stop the reaction. The inhibition of the ATP-utilizing enzyme, such as a particular protein kinase, was determined by measuring the ratio of the peptide substrate to phosphorylated product for each well of the assay plate using the Caliper HTS 250 system.
The use of six-sigma statistical limits represents a conservative method for declaring potential hits among targets. The six-sigma activity, as well as the mean population activity, can be different for each target enzyme. This method has an expected false positive rate, from an in-control measurement process, of one in one million.

A further assay addresses MAPKAPK2 (Homo sapiens, UniProt P49137). The description is as above. Format: biochemical. The settings on record: test compound 10 μM, kinase listed = active (greater than six-sigma from the mean activity of inactive compounds). An outline of the steps: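 Phosphorylation of a peptide substrate was quantified by Caliper mobility-shift separation of substrate and product after 2.5 h at 20-22 °C, with compounds tested at 10 μM. Inhibition was normalized to EDTA-quenched (100%) and DMSO (0%) controls; six-sigma thresholds flagged actives.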

SMILES strings stand for the structures.

Chain of MAPKAPK2 (P49137 whole entry): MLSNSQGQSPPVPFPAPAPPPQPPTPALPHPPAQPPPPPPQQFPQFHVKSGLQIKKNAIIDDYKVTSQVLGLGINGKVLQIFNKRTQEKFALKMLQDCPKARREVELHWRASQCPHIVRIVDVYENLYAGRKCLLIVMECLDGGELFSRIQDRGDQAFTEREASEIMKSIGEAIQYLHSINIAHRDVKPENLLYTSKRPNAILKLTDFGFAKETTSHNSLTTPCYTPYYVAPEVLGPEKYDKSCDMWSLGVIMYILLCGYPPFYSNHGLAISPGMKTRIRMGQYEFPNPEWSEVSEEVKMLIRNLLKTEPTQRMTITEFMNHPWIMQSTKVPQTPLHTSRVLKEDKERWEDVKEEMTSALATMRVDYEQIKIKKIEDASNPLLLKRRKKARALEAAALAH

In the case of `CSc1ccc(-c2ccc3nccc(Nc4ccc(N5CCN(C)CC5)cc4)c3c2)cc1` [N-(4-(4-methylpiperazin-1-yl)phenyl)-6-(4-(methylthio)phenyl)quinolin-4-amine], on PRAK, the Activity entry was “PRAK”.

For `CCN1CCN(c2ccc(Nc3ccnc4ccc(-c5ccc(C#N)cc5)cc34)cc2)CC1` [4-(4-(4-(4-ethylpiperazin-1-yl)phenylamino)quinolin-6-yl)benzonitrile], the results for the Activity entry at PRAK and on MAPKAPK2 were “PRAK” and “MAPKAPK2”, respectively.

With `CCCN1CCN(c2ccc(Nc3ccnc4ccc(-c5ccccc5)cc34)cc2)CC1` [6-phenyl-N-(4-(4-propylpiperazin-1-yl)phenyl)quinolin-4-amine], the figures for the Activity result on PRAK and on MAPKAPK2 were “PRAK” and “MAPKAPK2”, respectively.

`COc1ccc(F)cc1-c1ccc2nccc(Nc3ccc(N4CCN(C)CC4)cc3)c2c1` [6-(5-fluoro-2-methoxyphenyl)-N-(4-(4-methylpiperazin-1-yl)phenyl)quinolin-4-amine]: the Activity result on PRAK is “PRAK”; at MAPKAPK2, “MAPKAPK2”.

As to `N#Cc1ccc(-c2ccc3nccc(Nc4ccc(N5CCN(CC(=O)O)CC5)cc4)c3c2)cc1` [2-(4-(4-(6-(4-cyanophenyl)quinolin-4-ylamino)phenyl)piperazin-1-yl)acetic acid], the figures for the Activity result on PRAK and on MAPKAPK2 were “PRAK” and “MAPKAPK2”, respectively.

In the case of `N#Cc1ccc(-c2ccc3nccc(Nc4ccc(N5CCNCC5)cc4)c3c2)cc1` [4-(4-(4-(piperazin-1-yl)phenylamino)quinolin-6-yl)benzonitrile], the Activity result at PRAK is “PRAK”; on MAPKAPK2 it was “MAPKAPK2”.

`CCOc1ccc(-c2ccc3nccc(Nc4ccc(N5CCN(C)CC5)cc4)c3c2)cc1` [6-(4-ethoxyphenyl)-N-(4-(4-methylpiperazin-1-yl)phenyl)quinolin-4-amine]: the Activity result is reported as “PRAK” on PRAK and “MAPKAPK2” at MAPKAPK2.

Take `CN1CCN(c2ccc(Nc3ccnc4ccc(-c5ccc(F)c(F)c5)cc34)cc2)CC1` [6-(3,4-difluorophenyl)-N-(4-(4-methylpiperazin-1-yl)phenyl)quinolin-4-amine]: the Activity result is “PRAK” on PRAK and “MAPKAPK2” on MAPKAPK2.

As to `CN1CCN(c2ccc(Nc3ccnc4ccc(-c5ccsc5)cc34)cc2)CC1` [N-(4-(4-methylpiperazin-1-yl)phenyl)-6-(thiophen-3-yl)quinolin-4-amine], the Activity entry at PRAK was “PRAK”; at MAPKAPK2, “MAPKAPK2”.

Take `COc1ccc(OC)c(-c2ccc3nccc(Nc4ccc(N5CCN(C)CC5)cc4)c3c2)c1` [6-(2,5-dimethoxyphenyl)-N-(4-(4-methylpiperazin-1-yl)phenyl)quinolin-4-amine]: the Activity result is given as “PRAK” at PRAK and “MAPKAPK2” on MAPKAPK2.

For the compound `CN1CCN(c2ccc(Nc3ccnc4ccc(-c5ccc(OC(F)(F)F)cc5)cc34)cc2)CC1` [N-(4-(4-methylpiperazin-1-yl)phenyl)-6-(4-(trifluoromethoxy)phenyl)quinolin-4-amine], the Activity entry at PRAK is listed as “PRAK”; at MAPKAPK2, “MAPKAPK2”.

Take `CN1CCN(c2ccc(Nc3ccnc4ccc(-c5cc(F)cc(F)c5)cc34)cc2)CC1` [6-(3,5-difluorophenyl)-N-(4-(4-methylpiperazin-1-yl)phenyl)quinolin-4-amine]: the Activity result at PRAK is recorded as “PRAK”; at MAPKAPK2 it was “MAPKAPK2”.

With `CN1CCN(c2ccc(Nc3ccnc4ccc(-c5cccc(F)c5)cc34)cc2)CC1` [6-(3-fluorophenyl)-N-(4-(4-methylpiperazin-1-yl)phenyl)quinolin-4-amine], the results for the Activity entry at PRAK and at MAPKAPK2 were “PRAK” and “MAPKAPK2”, respectively.

For `Cc1cc(F)ccc1-c1ccc2nccc(Nc3ccc(N4CCN(C)CC4)cc3)c2c1` [6-(4-fluoro-2-methylphenyl)-N-(4-(4-methylpiperazin-1-yl)phenyl)quinolin-4-amine], the Activity result was “PRAK” at PRAK and “MAPKAPK2” at MAPKAPK2.

As for `CN(C)C1CCN(c2ccc(Nc3ccnc4ccc(-c5ccc(C#N)cc5)cc34)cc2)C1` (stereo not shown) [4-(4-(4-(3-(dimethylamino)pyrrolidin-1-yl)phenylamino)quinolin-6-yl)benzonitrile], at PRAK, the Activity result is reported as “PRAK”.

In the case of `CN1CCN(c2ccc(Nc3ccnc4ccc(-c5ccccc5)cc34)cc2)CC1` [N-(4-(4-methylpiperazin-1-yl)phenyl)-6-phenylquinolin-4-amine], the Activity result on PRAK is “PRAK”.

On to `CN1CCN(c2ccc(Nc3ccnc4ccc(-c5cccc(C(F)(F)F)c5)cc34)cc2)CC1` [N-(4-(4-methylpiperazin-1-yl)phenyl)-6-(3-(trifluoromethyl)phenyl)quinolin-4-amine], for which the Activity result on PRAK is “PRAK”.

Regarding `CN(C)C1CCN(c2ccc(Nc3ccnc4ccc(-c5ccc6[nH]c(=O)sc6c5)cc34)cc2)C1` (stereo not shown) [6-(4-(4-(3-(dimethylamino)pyrrolidin-1-yl)phenylamino)quinolin-6-yl)benzo[d]thiazol-2(3H)-one], on MAPKAPK2, the Activity result is on record as “MAPKAPK2”.

On to `COc1ccc(-c2ccc3nccc(Nc4ccc(N5CCN(CC(=O)N(C)C)CC5)cc4)c3c2)cc1` [2-(4-(4-(6-(4-methoxyphenyl)quinolin-4-ylamino)phenyl)piperazin-1-yl)-N,N-dimethylacetamide], for which, on MAPKAPK2, the Activity result was “MAPKAPK2”.

`CN1CCN(c2ccc(Nc3ccnc4ccc(-c5cc(C(F)(F)F)cc(C(F)(F)F)c5)cc34)cc2)CC1` [6-(3,5-bis(trifluoromethyl)phenyl)-N-(4-(4-methylpiperazin-1-yl)phenyl)quinolin-4-amine]: on MAPKAPK2, the Activity result is listed as “MAPKAPK2”.

For the compound `CCN(CC)C1CCN(c2ccc(Nc3ccnc4ccc(-c5ccc(Cl)cc5)cc34)cc2)C1` (stereo not shown) [6-(4-chlorophenyl)-N-(4-(3-(diethylamino)pyrrolidin-1-yl)phenyl)quinolin-4-amine], the Activity entry on MAPKAPK2 is reported as “MAPKAPK2”.

For the compound `CN(C)C1CCN(c2ccc(Nc3ccnc4ccc(-c5ccc6c(c5)CCC6=O)cc34)cc2)C1` (stereo not shown) [5-(4-(4-(3-(dimethylamino)pyrrolidin-1-yl)phenylamino)quinolin-6-yl)-2,3-dihydroinden-1-one], at MAPKAPK2, the Activity result was “MAPKAPK2”.

For `CN1CCN(c2ccc(Nc3ccnc4ccc(-c5ccc(Cl)cc5)cc34)cn2)CC1` [6-(4-chlorophenyl)-N-(6-(4-methylpiperazin-1-yl)pyridin-3-yl)quinolin-4-amine], the Activity result on MAPKAPK2 is “MAPKAPK2”.

For `CN(C)C1CCN(c2ccc(Nc3ccnc4ccc(-c5cccc(OCc6ccccc6)c5)cc34)cc2)C1` (stereo not shown) [6-(3-(benzyloxy)phenyl)-N-(4-(3-(dimethylamino)pyrrolidin-1-yl)phenyl)quinolin-4-amine], the Activity result on MAPKAPK2 was “MAPKAPK2”.

For the origin of these results see patent US7452887B2, “Quinoline- and isoquinoline-based compounds exhibiting ATP-utilizing enzyme inhibitory activity, and compositions, and uses thereof” (Amphora Discovery Corporation, priority 2004, dated 2008).
